In patent US20260053932A1, “COMPOUNDS AND METHODS FOR THE TARGETED DEGRADATION OF ANDROGEN RECEPTOR AND ASSOCIATED METHODS OF USE” (Arvinas Operations, Inc., priority 2020, published 2026):

The compounds below were run on androgen receptor (AR) in LNCaP and/or VCaP cells (assay: Androgen Receptor ELISA assay (AR degradation)). Conditions: LNCaP and/or VCaP cells; 5 hours incubation; media with R1881; read-out: DC50 Code* (degradation of AR ELISA).
Assay type: cell-based
Outline: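 VCaP cells grown ≥3 days, then treated 5 h with compound in media containing 1 nM R1881 (10× stock). Cells lysed and AR quantified by sandwich ELISA (mouse AR detection Ab, HRP anti-mouse, TMB). DC50 and Dmax derived from AR degradation.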

Question: For `CN1C(=O)CCC(N2C(=O)c3cc(F)c(N4CCN(CC5CCN(c6ccc(C(=O)N[C@H]7CC[C@H](Oc8ccc(C#N)c(Cl)c8)CC7)nn6)CC5)CC4)cc3C2=O)C1=O` (some centres unmarked) [Compound 74, N-((1r,4r)-4-(3-chloro-4-cyanophenoxy)cyclohexyl)-6-(4-((4-(6-fluoro-2-(1-methyl-2,6-dioxopiperidin-3-yl)-1,3-dioxoisoindolin-5-yl)piperazin-1-yl)methyl)piperidin-1-yl)pyridazine-3-carboxamide], which DC50 is on record?
Answer: > 100 nM

Question: With `N#Cc1ccc(O[C@H]2CC[C@H](NC(=O)c3cnc(N4CCC(CN(C5CCOCC5)[C@H]5C[C@H](Oc6ccc7c(c6)C(=O)N(C6CCC(=O)NC6=O)C7=O)C5)CC4)cn3)CC2)cc1Cl` (some centres unmarked) [Compound 30, N-((1r,4r)-4-(3-chloro-4-cyanophenoxy)cyclohexyl)-5-(4-((((1r,3r)-3-((2-(2,6-dioxopiperidin-3-yl)-1,3-dioxoisoindolin-5-yl)oxy)cyclobutyl) (tetrahydro-2H-pyran-4-yl)amino)methyl)piperidin-1-yl)pyrazine-2-carboxamide] as the compound, how does the DC50 read?
Answer: < 1 nM

Question: With `COCCN(CC1CCN(c2cnc(C(=O)N[C@H]3CC[C@H](Oc4ccc(C#N)c(Cl)c4)CC3)cn2)CC1)[C@H]1C[C@H](Oc2ccc3c(c2)C(=O)N(C2CCC(=O)NC2=O)C3=O)C1` (some centres unmarked) [Compound 58, N-((1r,4r)-4-(3-chloro-4-cyanophenoxy)cyclohexyl)-5-(4-((((1r,3r)-3-((2-(2,6-dioxopiperidin-3-yl)-1,3-dioxoisoindolin-5-yl)oxy)cyclobutyl)(2-methoxyethyl)amino)methyl)piperidin-1-yl)pyrazine-2-carboxamide] as the compound, how does the DC50 read?
Answer: < 1 nM

Same assay, conditions: degradation of AR ELISA in LNCaP and/or VCaP cells; Table 2C; read-out: DC50 Code*

Question: How did the DC50 turn out when `COc1cc(O[C@H]2C[C@H](N(CC(F)F)CC3CCN(c4cnc(C(=O)N[C@H]5C(C)(C)[C@H](Oc6ccc(C#N)c(Cl)c6)C5(C)C)cn4)CC3)C2)cc2c1C(=O)N(C1CCC(=O)NC1=O)C2=O` (some centres unmarked) [compound 137, N-((1r,3r)-3-(3-chloro-4-cyanophenoxy)-2,2,4,4-tetramethylcyclobutyl)-5-(4-(((2,2-difluoroethyl)((1r,3r)-3-((2-(2,6-dioxopiperidin-3-yl)-7-methoxy-1,3-dioxoisoindolin-5-yl)oxy)cyclobutyl)amino)methyl)piperidin-1-yl)pyrazine-2-carboxamide] was run?
Answer: 10 to 100 nM

Question: For `Cc1cc(O[C@H]2C(C)(C)[C@H](NC(=O)c3ccc(N4CCC(CN5CCC[C@H]5COc5ccc6c(c5)C(=O)N(C5CCC(=O)NC5=O)C6=O)CC4)cc3)C2(C)C)cc(C)c1C#N` (stereo partly drawn) [compound 172, N-((1r,3S)-3-(4-cyano-3,5-dimethylphenoxy)-2,2,4,4-tetramethylcyclobutyl)-4-(4-(((2S)-2-(((2-(2,6-dioxopiperidin-3-yl)-1,3-dioxoisoindolin-5-yl)oxy)methyl)pyrrolidin-1-yl)methyl)piperidin-1-yl)benzamide], which DC50 is on record?
Answer: < 1 nM

Question: How did the DC50 turn out when `COc1cc(O[C@H]2C[C@H](N(CC3CCN(c4ncc(C(=O)N[C@H]5C(C)(C)[C@H](Oc6cc(C)c(C#N)c(C)c6)C5(C)C)cn4)CC3)C(C)C)C2)cc2c1C(=O)N(C1CCC(=O)NC1=O)C2=O` (some centres unmarked) [compound 79, N-((1r,3r)-3-(4-cyano-3,5-dimethylphenoxy)-2,2,4,4-tetramethylcyclobutyl)-2-(4-((((1r,3r)-3-((2-(2,6-dioxopiperidin-3-yl)-7-methoxy-1,3-dioxoisoindolin-5-yl)oxy)cyclobutyl) (isopropyl)amino)methyl)piperidin-1-yl)pyrimidine-5-carboxamide] was run?
Answer: < 1 nM

Question: For `CC1(C)[C@H](NC(=O)c2ccc(N3CCC(CN4CCN(c5ccc6c(c5)C5(CC5)N(C5CCC(=O)NC5=O)C6=O)CC4)CC3)cc2)C(C)(C)[C@H]1Oc1ccc(C#N)c(Cl)c1` (some centres unmarked) [compound 139, N-((1r,3r)-3-(3-chloro-4-cyanophenoxy)-2,2,4,4-tetramethylcyclobutyl)-4-(4-((4-(2′-(2,6-dioxopiperidin-3-yl)-3′-oxospiro[cyclopropane-1,1′-isoindolin]-6′-yl)piperazin-1-yl)methyl)piperidin-1-yl)benzamide], which DC50 is on record?
Answer: > 100 nM

Question: How did the DC50 turn out when `COCCN(CC1CCN(c2ccc(C(=O)N[C@H]3C(C)(C)[C@H](Oc4ccc(C#N)c(Cl)c4)C3(C)C)cc2)CC1)[C@H]1C[C@H](Oc2cc(OC)c3c(c2)C(=O)N(C2CCC(=O)NC2=O)C3=O)C1` (some centres unmarked) [compound 105, N-((1r,3r)-3-(3-chloro-4-cyanophenoxy)-2,2,4,4-tetramethylcyclobutyl)-4-(4-((((1r,3r)-3-((2-(2,6-dioxopiperidin-3-yl)-7-methoxy-1,3-dioxoisoindolin-5-yl)oxy)cyclobutyl)(2-methoxyethyl)amino)methyl)piperidin-1-yl)benzamide] was run?
Answer: < 1 nM

Question: For `Cc1cc(O[C@H]2C(C)(C)[C@H](NC(=O)c3ccc(N4CCC(CN(C(C)C)[C@H]5C[C@H](Oc6ccc7c(c6)C(=O)N(C6CCC(=O)NC6=O)C7=O)C5)CC4)cn3)C2(C)C)cc(C)c1C#N` (some centres unmarked) [compound 128, N-((1r,3r)-3-(4-cyano-3,5-dimethylphenoxy)-2,2,4,4-tetramethylcyclobutyl)-5-(4-((((1r,3r)-3-((2-(2,6-dioxopiperidin-3-yl)-1,3-dioxoisoindolin-5-yl)oxy)cyclobutyl) (isopropyl)amino)methyl)piperidin-1-yl)picolinamide], which DC50 is on record?
Answer: 1 to 10 nM

Question: For `CC1(C)[C@H](NC(=O)c2ccc(N3CCC(CN4CCN(c5ccc6c(c5)C(=O)N([C@@]5(C#N)CCC(=O)NC5=O)C6)CC4)CC3)cc2)C(C)(C)[C@H]1Oc1ccc(C#N)c(Cl)c1` [compound 234, N-((1r,3r)-3-(3-chloro-4-cyanophenoxy)-2,2,4,4-tetramethylcyclobutyl)-4-(4-((4-(2-((R)-3-cyano-2,6-dioxopiperidin-3-yl)-3-oxoisoindolin-5-yl)piperazin-1-yl)methyl)piperidin-1-yl)benzamide], which DC50 is on record?
Answer: < 1 nM

Question: Which DC50 does the source give for `CC1(C)[C@H](NC(=O)c2ccc(N3CCC(CCN4CC5CN(c6ccc7c(c6)C(=O)N(C6CCC(=O)NC6=O)C7=O)CC5C4)C3)cc2)C(C)(C)[C@H]1Oc1ccc(C#N)c(Cl)c1` (some centres unmarked) [compound 111, N-((1r,3r)-3-(3-chloro-4-cyanophenoxy)-2,2,4,4-tetramethylcyclobutyl)-4-(3-(2-(5-(2-(2,6-dioxopiperidin-3-yl)-1,3-dioxoisoindolin-5-yl)hexahydropyrrolo[3,4-c]pyrrol-2(1H)-yl)ethyl)pyrrolidin-1-yl)benzamide] here?
Answer: < 1 nM

Question: `Cc1cc(O[C@H]2C(C)(C)[C@H](NC(=O)c3ccc(N4CCC(N(C)[C@H]5C[C@H](Oc6ccc7c(c6)C(=O)N(C6CCC(=O)NC6=O)C7=O)C5)CC4)cc3)C2(C)C)cc(C)c1C#N` (mixture of isomers) [compound 157, rac-N-((1r,3r)-3-(4-cyano-3,5-dimethylphenoxy)-2,2,4,4-tetramethylcyclobutyl)-4-(4-(((1r,3r)-3-((2-(2,6-dioxopiperidin-3-yl)-1,3-dioxoisoindolin-5-yl)oxy)cyclobutyl) (methyl)amino)piperidin-1-yl)benzamide] was tested. Which DC50 did it give?
Answer: < 1 nM

Question: For `COc1cc(O[C@H]2C(C)(C)[C@H](NC(=O)c3ccc(N4CCC(CN(C(C)C)[C@H]5C[C@H](Oc6cc(OC)c7c(c6)C(=O)N(C6CCC(=O)NC6=O)C7=O)C5)CC4)nn3)C2(C)C)ccc1C#N` (some centres unmarked) [compound 102, N-((1r,3r)-3-(4-cyano-3-methoxyphenoxy)-2,2,4,4-tetramethylcyclobutyl)-6-(4-((((1r,3r)-3-((2-(2,6-dioxopiperidin-3-yl)-7-methoxy-1,3-dioxoisoindolin-5-yl)oxy)cyclobutyl) (isopropyl)amino)methyl)piperidin-1-yl)pyridazine-3-carboxamide], which DC50 is on record?
Answer: < 1 nM

Question: For `CCN(CC1CCN(c2ccc(C(=O)N[C@H]3C(C)(C)[C@H](Oc4cc(C)c(C#N)c(C)c4)C3(C)C)cc2)CC1)[C@H]1C[C@H](Oc2cc(OC)c3c(c2)C(=O)N(C2CCC(=O)NC2=O)C3=O)C1` (mixture of isomers) [compound 169, rac-N-((1r,3r)-3-(4-cyano-3,5-dimethylphenoxy)-2,2,4,4-tetramethylcyclobutyl)-4-(4-((((1r,3r)-3-((2-(2,6-dioxopiperidin-3-yl)-7-methoxy-1,3-dioxoisoindolin-5-yl)oxy)cyclobutyl) (ethyl)amino)methyl)piperidin-1-yl) benzamide], which DC50 is on record?
Answer: < 1 nM

Question: For `COCCN(CC1CCN(c2ncc(C(=O)N[C@H]3C(C)(C)[C@H](Oc4cc(C)c(C#N)c(C)c4)C3(C)C)cn2)CC1)[C@H]1C[C@H](Oc2ccc3c(c2)C(=O)N(C2CCC(=O)NC2=O)C3=O)C1` (some centres unmarked) [compound 91, N-((1r,3r)-3-(4-cyano-3,5-dimethylphenoxy)-2,2,4,4-tetramethylcyclobutyl)-2-(4-((((1r,3r)-3-((2-(2,6-dioxopiperidin-3-yl)-1,3-dioxoisoindolin-5-yl)oxy)cyclobutyl)(2-methoxyethyl)amino)methyl)piperidin-1-yl)pyrimidine-5-carboxamide], which DC50 is on record?
Answer: < 1 nM

Question: How did the DC50 turn out when `Cc1cc(O[C@H]2C(C)(C)[C@H](NC(=O)c3cnc(N4CC(CCN5CCC(Oc6ccc7c(c6)C(=O)N(C6CCC(=O)NC6=O)C7=O)CC5)C4)nc3)C2(C)C)cc(C)c1C#N` (some centres unmarked) [compound 133, N-((1r,3r)-3-(4-cyano-3,5-dimethylphenoxy)-2,2,4,4-tetramethylcyclobutyl)-2-(3-(2-(4-((2-(2,6-dioxopiperidin-3-yl)-1,3-dioxoisoindolin-5-yl)oxy)piperidin-1-yl)ethyl)azetidin-1-yl)pyrimidine-5-carboxamide] was run?
Answer: 1 to 10 nM

Same assay, conditions: degradation of AR ELISA in LNCaP and/or VCaP cells; read-out: DC50 Code*

Question: With `COc1cc(O[C@H]2C[C@H](N(CC(F)F)CC3CCN(c4ccc(C(=O)N[C@H]5C(C)(C)[C@H](Oc6cc(C)c(C#N)c(C)c6)C5(C)C)cc4)CC3)C2)cc2c1C(=O)N(C1CCC(=O)NC1=O)C2=O` (some centres unmarked) [compound 242, N-((1r,3r)-3-(4-cyano-3,5-dimethylphenoxy)-2,2,4,4-tetramethylcyclobutyl)-4-(4-(((2,2-difluoroethyl)((1r,3r)-3-((2-(2,6-dioxopiperidin-3-yl)-7-methoxy-1,3-dioxoisoindolin-5-yl)oxy)cyclobutyl)amino)methyl)piperidin-1-yl)benzamide] as the compound, how does the DC50 read?
Answer: 1 to 10 nM
